Assay type in all cases: physicochemical
A short description of data set [1]: Hygroscopic test of aripiprazole anhydrous crystal, water content by Karl Fischer coulometric titration. Particulars: for Water content level (wt %) after humidification: after 24 hours at 60° C. in desiccator including water; for Water content level (wt %) before humidification: before hygroscopic test. The procedure:
About 1 g of aripiprazole obtained in the Synthesis Example was weighed in each of the weighing bottles having a diameter of about 5 cm. Each of the bottles was sealed with Kimwipe, and allowed to stand in a desiccator including water. The desiccator was placed in an oven at 60° C., and allowed to stand for 24 hours.
The weighing bottles were removed from the desiccator, and allowed to stand for 16 hours or more in a desiccator (room temperature/about 30% RH) including an MgCl2/6H2O saturated salt solution, thereby removing attached excess water. The water contents of the samples before and after the hygroscopic test were measured according to the following test procedure.
0.1 g of the aripiprazole obtained in the Synthesis Example and 0.1 g of the aripiprazole obtained after the hygroscopic test were accurately weighed. Using a moisture meter (CA-200) produced by Mitsubishi Chemical Analytech Co., Ltd., a test was performed according to the coulometric titration method, which is a water content measurement method (Karl Fischer method).

The nature of data set [2]: Hygroscopic test of finely milled powder, water content by Karl Fischer method. As to conditions: for Water content level (wt %), hygroscopic test of finely milled aripiprazole crystal, 24 hours: 60° C., humidity 100%. The procedure:
The finely milled powder obtained above was evaluated by a hygroscopic test according to the following method.
About 1 g of milled powder was weighed in a weighing bottle with a diameter of 5 cm, allowed to stand in water/desiccator in which the temperature and humidity were respectively set to 60° C. and 100%, and then allowed to stand in MgCl2.6H2O saturated salt solution/desiccator having a room temperature and humidity of about 30% for 24 hours, Thereafter, the water content was measured. The water content was measured according to the Karl Fischer method by accurately measuring 0.1 g of a sample.

A short description of data set [3]: Mean particle size by laser diffraction scattering particle size distribution analyzer. As to conditions: volume mean diameter, dry. On the procedure:
The term “mean particle size” refers to volume mean diameter as calculated from the particle size distribution measured by a laser scattering particle size distribution analyzer analyzer.
The particle size of the resulting finely milled powder of highly hygroscopic aripiprazole anhydrous crystal was measured using Dry Unit 2000, which was a laser diffraction scattering particle size distribution analyzer (Laser Micron Sizer (LMS-2000e)), and the mean particle size was calculated from the obtained measurement results. […] The measurement conditions using a laser diffraction scattering particle size distribution analyzer were as follows: Particle refractive index: 1.750, imaginary part: 0.1, and dispersive pressure: 0.15 MPa.

With `O=C1CCc2ccc(OCCCCN3CCN(c4cccc(Cl)c4Cl)CC3)cc2N1` [Lot No. 1, 7-{4-[4-(2,3-dichlorophenyl)-1-piperazinyl]butoxy}-3,4-dihydrocarbostyril], in data set [1], the “Water content level (wt %) after humidification” value was found to be 0.809 wt % and the “Water content level (wt %) before humidification” value worked out at 0.003 wt %.
In the case of `O=C1CCc2ccc(OCCCCN3CCN(c4cccc(Cl)c4Cl)CC3)cc2N1` [compound 3, 7-{4-[4-(2,3-dichlorophenyl)-1-piperazinyl]butoxy}-3,4-dihydrocarbostyril], in data set [2], the “Water content level (wt %), hygroscopic test of finely milled aripiprazole crystal, 0 hour” value (“Water content level (wt %) … 0 hour” for short) worked out at 0.24 wt % and the “Water content level (wt %), hygroscopic test of finely milled aripiprazole crystal, 24 hours” value (from here on “Water content level (wt %) … 24 hours”) is 3.97 wt %. For the same compound, the Mean particle size in data set [3] was 8.9 μm.
As for `O=C1CCc2ccc(OCCCCN3CCN(c4cccc(Cl)c4Cl)CC3)cc2N1` [Lot No. 2, 7-{4-[4-(2,3-dichlorophenyl)-1-piperazinyl]butoxy}-3,4-dihydrocarbostyril], in data set [1], the “Water content level (wt %) after humidification” value is 2.759 wt % and the “Water content level (wt %) before humidification” value is 0.032 wt %.
On to `O=C1CCc2ccc(OCCCCN3CCN(c4cccc(Cl)c4Cl)CC3)cc2N1` [Reference Example 1, 7-{4-[4-(2,3-dichlorophenyl)-1-piperazinyl]butoxy}-3,4-dihydrocarbostyril], for which, in data set [2], the “Water content level (wt %) … 0 hour” value was 0.10 wt % and the “Water content level (wt %) … 24 hours” value was found to be 3.37 wt %. For the same compound, the Mean particle size in data set [3] is 2.6 μm.
Regarding `O=C1CCc2ccc(OCCCCN3CCN(c4cccc(Cl)c4Cl)CC3)cc2N1` [compound 4, 7-{4-[4-(2,3-dichlorophenyl)-1-piperazinyl]butoxy}-3,4-dihydrocarbostyril], in data set [2], the “Water content level (wt %) … 0 hour” value was 0.29 wt % and the “Water content level (wt %) … 24 hours” value was found to be 3.90 wt %. For the same compound, the Mean particle size in data set [3] is 9.6 μm.
For the compound `O=C1CCc2ccc(OCCCCN3CCN(c4cccc(Cl)c4Cl)CC3)cc2N1` [compound 2, 7-{4-[4-(2,3-dichlorophenyl)-1-piperazinyl]butoxy}-3,4-dihydrocarbostyril], in data set [2], the “Water content level (wt %) … 0 hour” value is given as 0.21 wt % and the “Water content level (wt %) … 24 hours” value is 3.69 wt %. Moreover, the Mean particle size in data set [3] is 5.1 μm.
